Source: patent US9000044B2, “Substituted naphthylacetic acids” (Hoffmann-La Roche Inc., priority 2012, dated 2015)

Target: human CRTH2 (Homo sapiens (Human), UniProt Q9Y5Y4)
Assay: Calcium Flux Assay Using Fluorometric Imaging Plate Reader (FLIPR)
Type: cell-based
Details: CHO-K1 cells with G-alpha 16 and human CRTH2; inhibition of DK-PGD2 ligand-induced Ca2+ flux
Experimental: Calcium Flux Assay Using Fluorometric Imaging Plate Reader (FLIPR)
Cell Culture Conditions: CHO-K1 cells previously transfected with G-alpha 16 were subsequently transfected with the human CRTH2 receptor and the neomycin resistance gene. Following selection in 800 μg/mL G418 (geneticin), individual clones were assayed for their receptor expression based on staining with an anti human CRTH2 IgG, followed by assaying for their response to 13,14-dihydro-15-keto Prostaglandin D2 (DK-PDG2) (ligand) in the Ca^2+ Flux assay. Positive clones were then cloned by limiting dilution cloning. The transfected cells were cultured in Ham's F-12 medium supplemented with 10% fetal bovine serum, 2 mM glutamine, 100 U/mL penicillin/100 μg/mL streptomycin, 200 μg/mL hygromycin B, and 800 μg/mL G418 (geneticin). Cells were harvested with trypsin-EDTA (trypsin-ethylenediaminetetraacetic acid) and counted using ViaCount® reagent (from Guava Technologies, Inc. which contains two DNA-binding dyes that enable the reagent user to distinguish between viable and non-viable cells). The cell suspension volume was adjusted to 2.5×10^5 cells/mL with complete growth media. Aliquots of 50 μL were dispensed into BD Falcon™ 384 well black/clear microplates (from BD Biosciences, a division of Becton, Dickinson and Company) and the microplates were placed in a 37° C. CO2 incubator overnight. The following day, the microplates were used in the assay.
Loading Buffer containing dye (from the FLIPR® Calcium 3 Assay Kit from Molecular Devices, a division of MDS Analytical Technologies and MDS Inc.) was prepared by dissolving the contents of one bottle into 200 mL Hank's Balanced Salt Solution containing 20 mM HEPES (4-(2-hydroxyethyl)-1-piperazineethanesulfonic acid) and 2.5 mM probenecid. Growth media was removed from the cell plates and 25 μL of Hank's Balanced Salt Solution (HBSS) containing 20 mM HEPES, 0.05% BSA and 2.5 mM probenecid was added to each well followed by 25 μL of diluted dye using a Multidrop dispenser. The plates were then incubated for 1 hour at 37° C.
During the incubation, test compound plates were prepared by adding 90 μL of HBSS/20 mM HEPES/0.005% BSA buffer to the 2 μL of serial diluted compounds. To prepare serial diluted compounds, 20 mM stocks of compounds were dissolved in 100% DMSO. The compound dilution plate was set up as follows: well #1 received 5 μL of compound plus 10 μL of DMSO. Wells 2-10 received 10 μL of DMSO. 5 μL was mixed and transferred from well #1 into well #2. 1:3 serial dilutions were continued out 10 steps. 2 μL of diluted compound was transferred into duplicate wells of a 384 well “assay plate” and then 90 μL of buffer was added.
After incubation, both the cell and “assay plate” plates were brought to the fluorometric imaging plate reader (FLIPR®) and 20 μL of the diluted compounds were transferred to the cell plates by the FLIPR®. Plates were then incubated for 1 hour at room temperature. […] During the assay, fluorescence readings were taken simultaneously from all 384 wells of the cell plate every 1.5 seconds. Five readings were taken to establish a stable baseline, then 20 μL of sample was rapidly (30 μL/sec) and simultaneously added to each well of the cell plate. The fluorescence was continuously monitored before, during and after sample addition for a total elapsed time of 100 seconds. Responses (increase in peak fluorescence) in each well following agonist addition were determined. The initial fluorescence reading from each well, prior to ligand stimulation, was used as a zero baseline value for the data from that well. The responses were expressed as % inhibition of the buffer control.

Sequence of human CRTH2 (Q9Y5Y4 whole entry): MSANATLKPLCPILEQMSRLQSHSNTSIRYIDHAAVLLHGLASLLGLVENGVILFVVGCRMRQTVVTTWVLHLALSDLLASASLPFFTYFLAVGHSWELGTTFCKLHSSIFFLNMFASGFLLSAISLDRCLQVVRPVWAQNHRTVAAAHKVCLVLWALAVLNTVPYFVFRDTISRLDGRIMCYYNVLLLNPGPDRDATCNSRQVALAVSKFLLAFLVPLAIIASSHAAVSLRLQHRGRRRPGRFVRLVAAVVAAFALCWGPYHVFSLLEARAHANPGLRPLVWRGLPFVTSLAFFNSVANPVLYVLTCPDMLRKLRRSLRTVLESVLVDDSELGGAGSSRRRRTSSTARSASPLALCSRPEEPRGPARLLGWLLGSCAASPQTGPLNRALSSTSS

| Compound | IC50 [nM] |
| --- | --- |
| Cc1c(Cl)cccc1NS(=O)(=O)c1ccc(-c2c(C)c(CC(=O)O)cc3ccc(Cl)cc23)cc1 [Example 31, {6-Chloro-4-[4-(3-chloro-2-methyl-phenylsulfamoyl)-phenyl]-3-methyl-naphthalen-2-yl}-acetic acid] | 6.7 |
| Cc1c(CC(=O)O)cc2ccc(Cl)cc2c1-c1ccc(S(=O)(=O)Nc2cccc(Cl)c2)cc1 [Example 32, {6-Chloro-4-[4-(3-chloro-phenylsulfamoyl)-phenyl]-3-methyl-naphthalen-2-yl}-acetic acid] | 4.7 |
| Cc1c(CC(=O)O)cc2ccc(Cl)cc2c1-c1ccc(S(=O)(=O)N2CCCCC2)cc1 [Example 34, {6-Chloro-3-methyl-4-[4-(piperidine-1-sulfonyl)-phenyl]-naphthalen-2-yl}-acetic acid] | 0.9 |
| CCN(CC)S(=O)(=O)c1ccc(-c2c(C)c(CC(=O)O)cc3ccc(Cl)cc23)cc1 [Example 35, [6-Chloro-4-(4-diethylsulfamoyl-phenyl)-3-methyl-naphthalen-2-yl]-acetic acid] | 0.5 |
| Cc1c(CC(=O)O)cc2ccc(Cl)cc2c1-c1ccc(S(=O)(=O)NC2CCCCC2)cc1 [Example 36, [6-Chloro-4-(4-cyclohexylsulfamoyl-phenyl)-3-methyl-naphthalen-2-yl]-acetic acid] | 6.1 |
| Cc1c(CC(=O)O)cc2ccc(Cl)cc2c1-c1ccc(S(=O)(=O)NC(C)C)cc1 [Example 37, [6-Chloro-4-(4-isopropylsulfamoyl-phenyl)-3-methyl-naphthalen-2-yl]-acetic acid] | 1.5 |
| Cc1c(CC(=O)O)cc2ccc(Cl)cc2c1-c1ccc(S(=O)(=O)NCc2ccccc2)cc1 [Example 38, [4-(4-Benzylsulfamoyl-phenyl)-6-chloro-3-methyl-naphthalen-2-yl]-acetic acid] | 1.6 |
| COc1ccc(CNS(=O)(=O)c2ccc(-c3c(C)c(CC(=O)O)cc4ccc(Cl)cc34)cc2)cc1 [Example 39, {6-Chloro-4-[4-(4-methoxy-benzylsulfamoyl)-phenyl]-3-methyl-naphthalen-2-yl}-acetic acid] | 13.2 |
| COc1ccc(CN(C(C)C)S(=O)(=O)c2ccc(-c3c(C)c(CC(=O)O)cc4ccc(Cl)cc34)cc2)cc1 [Example 40, (6-Chloro-4-{4-[isopropyl-(4-methoxy-benzyl)-sulfamoyl]-phenyl}-3-methyl-naphthalen-2-yl)-acetic acid] | 3.1 |
| Cc1ccc(NS(=O)(=O)c2ccc(-c3c(C)c(CC(=O)O)cc4ccc(F)cc34)cc2)cc1 [Example 42, [6-Fluoro-3-methyl-4-(4-p-tolylsulfamoyl-phenyl)-naphthalen-2-yl]-acetic acid] | 0.9 |
| Cc1c(Cl)cccc1NS(=O)(=O)c1ccc(-c2c(C)c(CC(=O)O)cc3ccc(F)cc23)cc1 [Example 44, {4-[4-(3-Chloro-2-methyl-phenylsulfamoyl)-phenyl]-6-fluoro-3-methyl-naphthalen-2-yl}-acetic acid] | 0.9 |
| Cc1c(CC(=O)O)cc2ccc(F)cc2c1-c1ccc(S(=O)(=O)Nc2cccc(Cl)c2)cc1 [Example 45, {4-[4-(3-Chloro-phenylsulfamoyl)-phenyl]-6-fluoro-3-methyl-naphthalen-2-yl}-acetic acid] | 1.5 |
| Cc1c(CC(=O)O)cc2ccc(F)cc2c1-c1ccc(S(=O)(=O)N2CCCC2)cc1 [Example 46, {6-Fluoro-3-methyl-4-[4-(pyrrolidine-1-sulfonyl)-phenyl]-naphthalen-2-yl}-acetic acid] | 0.7 |
| Cc1c(CC(=O)O)cc2ccc(F)cc2c1-c1ccc(S(=O)(=O)N2CCCCC2)cc1 [Example 47, {6-Fluoro-3-methyl-4-[4-(piperidine-1-sulfonyl)-phenyl]-naphthalen-2-yl}-acetic acid] | 4.1 |
| CCN(CC)S(=O)(=O)c1ccc(-c2c(C)c(CC(=O)O)cc3ccc(F)cc23)cc1 [Example 48, [4-(4-Diethylsulfamoyl-phenyl)-6-fluoro-3-methyl-naphthalen-2-yl]-acetic acid] | 1.8 |
| Cc1c(CC(=O)O)cc2ccc(F)cc2c1-c1ccc(S(=O)(=O)NC2CCCCC2)cc1 [Example 49, [4-(4-Cyclohexylsulfamoyl-phenyl)-6-fluoro-3-methyl-naphthalen-2-yl]-acetic acid] | 1.5 |
| Cc1c(CC(=O)O)cc2ccc(F)cc2c1-c1ccc(S(=O)(=O)NC(C)C)cc1 [Example 50, [6-Fluoro-4-(4-isopropylsulfamoyl-phenyl)-3-methyl-naphthalen-2-yl]-acetic acid] | 1.7 |
| Cc1c(CC(=O)O)cc2ccc(F)cc2c1-c1ccc(S(=O)(=O)NCc2ccccc2)cc1 [Example 51, [4-(4-Benzylsulfamoyl-phenyl)-6-fluoro-3-methyl-naphthalen-2-yl]-acetic acid] | 0.4 |
| COc1ccc(CNS(=O)(=O)c2ccc(-c3c(C)c(CC(=O)O)cc4ccc(F)cc34)cc2)cc1 [Example 52, {6-Fluoro-4-[4-(4-methoxy-benzylsulfamoyl)-phenyl]-3-methyl-naphthalen-2-yl}-acetic acid] | 3.2 |
| COc1ccc(CN(C(C)C)S(=O)(=O)c2ccc(-c3c(C)c(CC(=O)O)cc4ccc(F)cc34)cc2)cc1 [Example 53, (6-Fluoro-4-{4-[isopropyl-(4-methoxy-benzyl)-sulfamoyl]-phenyl}-3-methyl-naphthalen-2-yl)-acetic acid] | 1.3 |
| Cc1c(CC(=O)O)cc2ccc(Cl)cc2c1-c1ccc(S(=O)(=O)NCCO)cc1 [Example 56, {6-Chloro-4-[4-(2-hydroxy-ethylsulfamoyl)-phenyl]-3-methyl-naphthalen-2-yl}-acetic acid] | 5.6 |
| Cc1c(CC(=O)O)cc2ccc(F)cc2c1-c1ccc(S(=O)(=O)NCCO)cc1 [Example 57, {6-Fluoro-4-[4-(2-hydroxy-ethylsulfamoyl)-phenyl]-3-methyl-naphthalen-2-yl}-acetic acid] | 6.1 |
